Results published in ChEMBL document CHEMBL1136199, “2,6,8,9-tetrasubstituted purines as new CDK1 inhibitors” (Bioorg Med Chem Lett, 2003).
pIC50: −log10 of the molar value.

Experiments:
MCF7 = test: cells; assay type: functional, cell-based; conditions: Homo sapiens
Description: Cytotoxic property against MCF-7 cell line was determined

K562 = test: cells; assay type: functional, cell-based; conditions: Homo sapiens
Description: Cytotoxic property against K562 cell line was determined

pIC50 (MCF7) | pIC50 (K562) | SMILES
4.27 | 4.04 | CCC(CO)Nc1nc(NCc2ccccc2)c2nc(Cl)n(C(C)C)c2n1 (stereo not given)
4.22 | 4.10 | CCC(CO)Nc1nc(NCc2ccccc2)c2nc(N)n(C(C)C)c2n1 (stereo not given)
4.03 | 4.24 | CCC(CO)Nc1nc(NCc2ccccc2)c2nc(C)n(C(C)C)c2n1 (stereo not given)
– | 4.13 | CCC(CO)Nc1nc(NCc2ccccc2)c2nc(O)n(C(C)C)c2n1 (stereo not given)
4.30 | 4.70 | CCCOc1nc2c(NCc3ccccc3)nc(NC(CC)CO)nc2n1C(C)C (stereo not given)
4.28 | 4.57 | CCC(CO)Nc1nc(NCc2ccccc2)c2nc(Br)n(C(C)C)c2n1 (stereo not given)
3.93 | 3.93 | CCC(CO)Nc1nc(NCc2ccccc2)c2nc([N+](=O)[O-])n(C(C)C)c2n1 (stereo not given)
4.26 | 3.81 | CCC(CO)Nc1nc(NCc2ccccc2)c2nc(S)n(C(C)C)c2n1 (stereo not given)

The next lines start with the compound.

SMILES | pIC50 (MCF7) | pIC50 (K562)
CCC(CO)Nc1nc(NCc2cccc(O)c2)c2nc(Cl)n(C(C)C)c2n1 (stereo not given) | 4.57 | 4.57
CC(C)n1cnc2c(Nc3cccc(Cl)c3)nc(NC3CCC(N)CC3)nc21 (stereo not given) | 5.96 | 5.85
CC(C)C(CO)Nc1nc(Nc2cccc(Cl)c2)c2nc(Cl)n(C(C)C)c2n1 (stereo not given) | 4.35 | 4.68
Cc1nc2c(Nc3cccc(Cl)c3)nc(NC3CCC(N)CC3)nc2n1C(C)C (stereo not given) | 5.10 | 5.46
CCC(CO)Nc1nc(NCc2ccccc2)c2nc(NCCCO)n(C(C)C)c2n1 (stereo not given) | 4.40 | 4.52
